Laboratory results published in ChEMBL document CHEMBL1909046, “DrugMatrix in vitro pharmacology data”.

molecular target: Mitogen-activated protein kinase 3 (Homo sapiens, UniProt P27361); experiment: DRUGMATRIX: Protein Serine/Threonine Kinase, ERK1 enzyme inhibition (substrate: Myelin Basic Protein); parameters: species or system Escherichia coli; details: Not Active = under 50% inhibition at 10 µM
Sequence (P27361 whole entry): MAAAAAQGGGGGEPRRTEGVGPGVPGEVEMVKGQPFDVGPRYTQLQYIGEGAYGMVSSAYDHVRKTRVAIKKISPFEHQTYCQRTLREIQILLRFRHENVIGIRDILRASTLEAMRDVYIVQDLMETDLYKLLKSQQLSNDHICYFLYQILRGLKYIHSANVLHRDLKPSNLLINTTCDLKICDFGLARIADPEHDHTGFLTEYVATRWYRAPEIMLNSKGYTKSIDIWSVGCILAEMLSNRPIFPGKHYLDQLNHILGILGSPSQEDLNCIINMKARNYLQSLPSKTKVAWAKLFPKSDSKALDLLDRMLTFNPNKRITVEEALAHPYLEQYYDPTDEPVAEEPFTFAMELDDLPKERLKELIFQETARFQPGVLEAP

Compound	IC50
CC(C)NC[C@H](O)COc1cccc2ccccc12 [LEVOPROPRANOLOL]	Not Active
O=C(O)CCCCC1CCSS1 (stereo not drawn) [LIPOIC ACID, ALPHA]	Not Active
CN(C)C(=O)C(CCN1CCC(O)(c2ccc(Cl)cc2)CC1)(c1ccccc1)c1ccccc1 [LOPERAMIDE]	Not Active
Clc1ccc(COC(Cn2ccnc2)c2ccc(Cl)cc2Cl)c(Cl)c1 (configuration not stated) [MICONAZOLE]	Not Active
Oc1ccc2c3c1O[C@H]1[C@@H](O)CC[C@@]4(O)[C@@H](C2)N(CC2CCC2)CC[C@]314 [NALBUPHINE]	Not Active
C[C@]12C=CC(=O)C=C1CC[C@@H]1[C@@H]2C(=O)C[C@@]2(C)[C@H]1CC[C@]2(O)C(=O)CO [PREDNISONE]	Not Active
OCCOCCN1CCN(C2=Nc3ccccc3Sc3ccccc32)CC1 [QUETIAPINE]	Not Active

molecular target: T1, Cholecystokinin receptor type A (Homo sapiens, UniProt P32238); experiment: not given; format: cell membranes, Membrane; details: 1321-n1; also: in other assays of this panel Not Active means under 50% inhibition at 10 µM
T1 sequence (P32238 whole entry): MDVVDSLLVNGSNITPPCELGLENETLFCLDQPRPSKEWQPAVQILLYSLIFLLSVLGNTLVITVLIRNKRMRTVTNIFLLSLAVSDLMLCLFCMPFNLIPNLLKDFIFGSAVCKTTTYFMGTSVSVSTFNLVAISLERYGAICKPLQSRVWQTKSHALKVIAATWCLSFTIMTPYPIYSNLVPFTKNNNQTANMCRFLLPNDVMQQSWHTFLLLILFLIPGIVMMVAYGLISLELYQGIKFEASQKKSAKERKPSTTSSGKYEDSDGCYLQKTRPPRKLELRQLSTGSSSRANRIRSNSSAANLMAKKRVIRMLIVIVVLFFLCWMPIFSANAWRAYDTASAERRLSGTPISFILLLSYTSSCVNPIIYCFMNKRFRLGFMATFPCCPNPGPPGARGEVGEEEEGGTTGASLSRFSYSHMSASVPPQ

Compound	IC50
CC(C)NC[C@H](O)COc1cccc2ccccc12 [LEVOPROPRANOLOL]	Not Active
O=C(O)CCCCC1CCSS1 (stereo not drawn) [LIPOIC ACID, ALPHA]	Not Active
CN(C)C(=O)C(CCN1CCC(O)(c2ccc(Cl)cc2)CC1)(c1ccccc1)c1ccccc1 [LOPERAMIDE]	Not Active
Clc1ccc(COC(Cn2ccnc2)c2ccc(Cl)cc2Cl)c(Cl)c1 (configuration not stated) [MICONAZOLE]	Not Active
Oc1ccc2c3c1O[C@H]1[C@@H](O)CC[C@@]4(O)[C@@H](C2)N(CC2CCC2)CC[C@]314 [NALBUPHINE]	Not Active
C[C@]12C=CC(=O)C=C1CC[C@@H]1[C@@H]2C(=O)C[C@@]2(C)[C@H]1CC[C@]2(O)C(=O)CO [PREDNISONE]	Not Active
OCCOCCN1CCN(C2=Nc3ccccc3Sc3ccccc32)CC1 [QUETIAPINE]	Not Active

molecular target: C-C chemokine receptor type 5 (Homo sapiens, UniProt P51681); experiment: not given; format: cell membranes, Membrane; details: hek293; also: in other assays of this panel Not Active means under 50% inhibition at 10 µM
Sequence (P51681 whole entry): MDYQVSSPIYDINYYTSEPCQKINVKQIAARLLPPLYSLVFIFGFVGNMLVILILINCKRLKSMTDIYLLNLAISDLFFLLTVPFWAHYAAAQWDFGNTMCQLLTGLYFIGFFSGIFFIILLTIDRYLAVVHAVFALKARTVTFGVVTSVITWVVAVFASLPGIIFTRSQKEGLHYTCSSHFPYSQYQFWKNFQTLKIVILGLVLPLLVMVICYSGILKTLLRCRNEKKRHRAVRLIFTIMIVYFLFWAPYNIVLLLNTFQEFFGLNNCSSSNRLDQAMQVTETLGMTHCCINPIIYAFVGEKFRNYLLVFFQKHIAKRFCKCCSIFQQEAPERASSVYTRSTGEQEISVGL

Compound	IC50
CC(C)NC[C@H](O)COc1cccc2ccccc12 [LEVOPROPRANOLOL]	Not Active
O=C(O)CCCCC1CCSS1 (stereo not drawn) [LIPOIC ACID, ALPHA]	Not Active
CN(C)C(=O)C(CCN1CCC(O)(c2ccc(Cl)cc2)CC1)(c1ccccc1)c1ccccc1 [LOPERAMIDE]	Not Active
Clc1ccc(COC(Cn2ccnc2)c2ccc(Cl)cc2Cl)c(Cl)c1 (configuration not stated) [MICONAZOLE]	Not Active
Oc1ccc2c3c1O[C@H]1[C@@H](O)CC[C@@]4(O)[C@@H](C2)N(CC2CCC2)CC[C@]314 [NALBUPHINE]	Not Active
C[C@]12C=CC(=O)C=C1CC[C@@H]1[C@@H]2C(=O)C[C@@]2(C)[C@H]1CC[C@]2(O)C(=O)CO [PREDNISONE]	Not Active
OCCOCCN1CCN(C2=Nc3ccccc3Sc3ccccc32)CC1 [QUETIAPINE]	Not Active

molecular target: T2, Interstitial collagenase (Homo sapiens, UniProt P03956); experiment: biochemical; format: tissue-based, Rheumatoid synovial fibroblasts; details: not given;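 also: MMP-1 enzyme inhibition assay using a peptide substrate; in other assays of this panel Not Active means under 50% inhibition at 10 µM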
T2 sequence (P03956 whole entry): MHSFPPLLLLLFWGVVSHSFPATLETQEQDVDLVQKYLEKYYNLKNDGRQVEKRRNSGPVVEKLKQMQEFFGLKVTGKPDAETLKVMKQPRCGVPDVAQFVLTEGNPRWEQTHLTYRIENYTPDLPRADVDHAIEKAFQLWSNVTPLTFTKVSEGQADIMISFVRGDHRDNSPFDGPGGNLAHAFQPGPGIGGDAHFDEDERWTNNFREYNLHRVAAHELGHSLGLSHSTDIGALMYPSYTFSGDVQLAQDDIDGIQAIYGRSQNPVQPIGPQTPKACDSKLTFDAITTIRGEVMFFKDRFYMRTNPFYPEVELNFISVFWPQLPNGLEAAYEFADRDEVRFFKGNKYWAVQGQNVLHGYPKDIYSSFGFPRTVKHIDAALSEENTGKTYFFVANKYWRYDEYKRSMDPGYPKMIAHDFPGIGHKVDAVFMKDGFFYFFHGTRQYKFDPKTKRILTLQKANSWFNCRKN

Compound	IC50
CC(C)NC[C@H](O)COc1cccc2ccccc12 [LEVOPROPRANOLOL]	Not Active
O=C(O)CCCCC1CCSS1 (stereo not drawn) [LIPOIC ACID, ALPHA]	Not Active
CN(C)C(=O)C(CCN1CCC(O)(c2ccc(Cl)cc2)CC1)(c1ccccc1)c1ccccc1 [LOPERAMIDE]	Not Active
Clc1ccc(COC(Cn2ccnc2)c2ccc(Cl)cc2Cl)c(Cl)c1 (configuration not stated) [MICONAZOLE]	Not Active
Oc1ccc2c3c1O[C@H]1[C@@H](O)CC[C@@]4(O)[C@@H](C2)N(CC2CCC2)CC[C@]314 [NALBUPHINE]	Not Active
C[C@]12C=CC(=O)C=C1CC[C@@H]1[C@@H]2C(=O)C[C@@]2(C)[C@H]1CC[C@]2(O)C(=O)CO [PREDNISONE]	Not Active
OCCOCCN1CCN(C2=Nc3ccccc3Sc3ccccc32)CC1 [QUETIAPINE]	Not Active

molecular target: T3, Alpha-2C adrenergic receptor (Homo sapiens, UniProt P18825); experiment: DRUGMATRIX: Adrenergic Alpha-2C radioligand binding (ligand: [3H] MK-912); format: cell membranes, Sf9, Membrane; details: sf9
T3 sequence (P18825 whole entry): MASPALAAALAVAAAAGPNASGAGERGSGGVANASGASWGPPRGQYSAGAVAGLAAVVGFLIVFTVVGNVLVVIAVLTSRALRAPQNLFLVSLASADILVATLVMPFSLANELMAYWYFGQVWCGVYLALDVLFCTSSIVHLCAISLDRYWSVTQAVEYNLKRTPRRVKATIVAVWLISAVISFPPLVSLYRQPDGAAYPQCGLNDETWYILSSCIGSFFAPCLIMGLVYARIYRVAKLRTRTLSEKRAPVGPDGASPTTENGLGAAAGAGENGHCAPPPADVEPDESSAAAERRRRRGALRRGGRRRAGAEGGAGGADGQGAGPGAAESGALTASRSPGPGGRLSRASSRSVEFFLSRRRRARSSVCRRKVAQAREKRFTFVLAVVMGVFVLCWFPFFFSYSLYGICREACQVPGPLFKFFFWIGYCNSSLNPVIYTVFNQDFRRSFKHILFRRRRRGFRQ

Compound	IC50
CC(C)NC[C@H](O)COc1cccc2ccccc12 [LEVOPROPRANOLOL]	Not Active
O=C(O)CCCCC1CCSS1 (stereo not drawn) [LIPOIC ACID, ALPHA]	Not Active
CN(C)C(=O)C(CCN1CCC(O)(c2ccc(Cl)cc2)CC1)(c1ccccc1)c1ccccc1 [LOPERAMIDE]	Not Active
Clc1ccc(COC(Cn2ccnc2)c2ccc(Cl)cc2Cl)c(Cl)c1 (configuration not stated) [MICONAZOLE]	Not Active
Oc1ccc2c3c1O[C@H]1[C@@H](O)CC[C@@]4(O)[C@@H](C2)N(CC2CCC2)CC[C@]314 [NALBUPHINE]	Not Active
C[C@]12C=CC(=O)C=C1CC[C@@H]1[C@@H]2C(=O)C[C@@]2(C)[C@H]1CC[C@]2(O)C(=O)CO [PREDNISONE]	Not Active

molecular target: 5-hydroxytryptamine receptor 2B (Homo sapiens, UniProt P41595); experiment: not given; format: cell membranes, CHO-K1, Membrane; details: cho-k1; also: in other assays of this panel Not Active means under 50% inhibition at 10 µM
Sequence (P41595 whole entry): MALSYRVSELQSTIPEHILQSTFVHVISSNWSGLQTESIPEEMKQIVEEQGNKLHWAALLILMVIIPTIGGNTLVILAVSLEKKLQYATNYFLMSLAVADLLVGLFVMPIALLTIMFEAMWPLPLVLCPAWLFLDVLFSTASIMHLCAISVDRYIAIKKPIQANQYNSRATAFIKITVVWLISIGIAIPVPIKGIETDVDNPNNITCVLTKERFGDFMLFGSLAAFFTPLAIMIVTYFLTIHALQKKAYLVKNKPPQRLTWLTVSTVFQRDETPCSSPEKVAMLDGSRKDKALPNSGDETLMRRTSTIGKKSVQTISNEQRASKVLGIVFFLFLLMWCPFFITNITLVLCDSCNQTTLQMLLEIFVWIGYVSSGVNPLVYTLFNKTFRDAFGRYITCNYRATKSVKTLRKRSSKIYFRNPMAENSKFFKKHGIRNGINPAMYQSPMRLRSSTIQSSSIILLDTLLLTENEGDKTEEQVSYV

Compound	IC50
O=C(O)CCCCC1CCSS1 (stereo not drawn) [LIPOIC ACID, ALPHA]	Not Active
Oc1ccc2c3c1O[C@H]1[C@@H](O)CC[C@@]4(O)[C@@H](C2)N(CC2CCC2)CC[C@]314 [NALBUPHINE]	Not Active
C[C@]12C=CC(=O)C=C1CC[C@@H]1[C@@H]2C(=O)C[C@@]2(C)[C@H]1CC[C@]2(O)C(=O)CO [PREDNISONE]	Not Active

same assay, conditions: read-out: IC50

Compound	IC50
CN(C)C(=O)C(CCN1CCC(O)(c2ccc(Cl)cc2)CC1)(c1ccccc1)c1ccccc1 [LOPERAMIDE]	4.1 µM
Clc1ccc(COC(Cn2ccnc2)c2ccc(Cl)cc2Cl)c(Cl)c1 (configuration not stated) [MICONAZOLE]	5.55 µM

same assay, conditions: read-out: Ki

Compound	Ki
CN(C)C(=O)C(CCN1CCC(O)(c2ccc(Cl)cc2)CC1)(c1ccccc1)c1ccccc1 [LOPERAMIDE]	2.61 µM
Clc1ccc(COC(Cn2ccnc2)c2ccc(Cl)cc2Cl)c(Cl)c1 (configuration not stated) [MICONAZOLE]	3.53 µM

molecular target: T4, 5-hydroxytryptamine receptor 1A (Rattus norvegicus, UniProt P19327); experiment: not given; format: cell membranes, CHO-K1, Membrane; details: cho-k1; also: in other assays of this panel Not Active means under 50% inhibition at 10 µM
T4 sequence (P19327 whole entry): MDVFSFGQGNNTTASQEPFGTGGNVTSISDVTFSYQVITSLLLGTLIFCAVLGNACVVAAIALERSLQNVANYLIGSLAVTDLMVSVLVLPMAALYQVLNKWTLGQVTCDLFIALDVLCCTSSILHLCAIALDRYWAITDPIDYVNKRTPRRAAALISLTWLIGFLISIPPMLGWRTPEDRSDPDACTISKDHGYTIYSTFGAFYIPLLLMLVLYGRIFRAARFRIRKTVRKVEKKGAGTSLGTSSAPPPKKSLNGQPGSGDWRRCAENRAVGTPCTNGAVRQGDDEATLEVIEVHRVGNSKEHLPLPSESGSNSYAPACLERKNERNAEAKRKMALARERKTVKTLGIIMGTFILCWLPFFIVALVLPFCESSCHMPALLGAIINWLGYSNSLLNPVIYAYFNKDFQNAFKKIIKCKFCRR

Compound	IC50
O=C(O)CCCCC1CCSS1 (stereo not drawn) [LIPOIC ACID, ALPHA]	Not Active
CN(C)C(=O)C(CCN1CCC(O)(c2ccc(Cl)cc2)CC1)(c1ccccc1)c1ccccc1 [LOPERAMIDE]	Not Active
Oc1ccc2c3c1O[C@H]1[C@@H](O)CC[C@@]4(O)[C@@H](C2)N(CC2CCC2)CC[C@]314 [NALBUPHINE]	Not Active
C[C@]12C=CC(=O)C=C1CC[C@@H]1[C@@H]2C(=O)C[C@@]2(C)[C@H]1CC[C@]2(O)C(=O)CO [PREDNISONE]	Not Active

same assay, conditions: read-out: IC50

Compound	IC50
Clc1ccc(COC(Cn2ccnc2)c2ccc(Cl)cc2Cl)c(Cl)c1 (configuration not stated) [MICONAZOLE]	11.5 µM

same assay, conditions: read-out: Ki

Compound	Ki
Clc1ccc(COC(Cn2ccnc2)c2ccc(Cl)cc2Cl)c(Cl)c1 (configuration not stated) [MICONAZOLE]	6.56 µM
